Measured values: patent US7429482B2, “Screening tools for discovery of novel anabolic agents” (United States of America as represented by the Department …, priority 2005, dated 2008)

Columns and labels:
junB = test: Chronic denervation: junB mRNA in gastrocnemius (qPCR); format: in vivo, rat
Experimental: (§1) Male Wistar rats weighing 200-250 gm (Taconic Farms, Germantown, N.Y.) were provided food and water ad libitum and were housed in a temperature and humidity controlled environment providing a 12:12 hour day-night cycle. For surgical procedures, animals were anesthetized with ketamine/xylazine. The left sciatic nerve was exposed by blunt dissection, and a 1 to 2 mm piece of this nerve was excised just below the level of the femoral head. A sham surgery was performed on the right hind limb in which the sciatic nerve was exposed but was not transected. Twenty eight days later, animals were anesthetized, and Alzet pumps were implanted subcutaneously on the back. […] Testosterone levels after replacement were approximately 15 nM, a high-normal range for rats of this age. […]
(§2) Total RNA was extracted from skeletal muscle (20 mg) by homogenization in guanidine thiocyanate using a Polytron followed by extraction of total RNA with phenol-chloroform as described by (Chomczynski and Sacchi, Anal Biochem 162: 156-159, 1987). […] Total RNA was eluted and quantified by absorbance at 260 nm. […] Levels of gene expression in the denervated muscle were expressed as fold induction relative to muscle from the sham-denervated leg of animals administered vehicle. […] Fold-induction was determined using the 2^−ΔΔCt method, using expression of 18S RNA as the normalization control. […]

IGF-1 receptor (IGF-1R) = test: Acute denervation: IGF-1 receptor mRNA in EDL and soleus (qPCR); format: in vivo, rat
Experimental: as §1, with “250” for “200-250”, “Model 2002” for “Twenty eight days later, animals were anesthetized, and”, “A pellet containing” for “Testosterone levels after replacement were approximately”, “mg of testosterone (Innovative Research of America, Sarasota, Fla.) administered as” for “nM,”, “continuous infusion (5 mg/wk), or a pellet containing placebo, was inserted into a subcutaneous pouch.” for “high-normal range for rats of this age.”
Total RNA was extracted from skeletal muscle (20 mg) by homogenization in guanidine thiocyanate using a Polytron followed by extraction using phenol-chloroform (Chomczynski and Sacchi, Anal Biochem 162: 156-159, 1987). […] Total RNA was then eluted and quantified by absorbance at 260 nm. […] Levels of gene expression in the denervated muscle were expressed as fold induction relative to muscle from the sham-denervated leg of animals administered vehicle. […] Fold-induction was determined using the 2^−ΔΔCt method, using expression of 18S RNA as the normalization control. […]

IGF-1 receptor = test: Chronic denervation: IGF receptor mRNA in gastrocnemius (qPCR); format: in vivo, rat; conditions: for IGF-receptor expression: denervated muscle
Experimental: (§3) Male Wistar rats weighing 200-250 gm (Taconic Farms, Germantown, N.Y.) were provided food and water ad libitum and were housed in a temperature and humidity controlled environment providing a 12:12 hour day-night cycle. For surgical procedures, animals were anesthetized with ketamine/xylazine. The left sciatic nerve was exposed by blunt dissection, and a 1 to 2 mm piece of this nerve was excised just below the level of the femoral head. A sham surgery was performed on the right hind limb in which the sciatic nerve was exposed but was not transected. Twenty eight days later, animals were anesthetized, and Alzet pumps were implanted subcutaneously on the back. […] Testosterone levels after replacement were approximately 15 nM, a high-normal range for rats of this age. Animals were sacrificed 3, 7 or 28 days after implantation of the miniosmotic pumps by inhalation of carbon dioxide. Gastrocnemius muscles were excised and weighed, then flash frozen on dry ice and stored at −80° C.
Total RNA was extracted from skeletal muscle (20 mg) by homogenization in guanidine thiocyanate using a Polytron followed by extraction of total RNA with phenol-chloroform as described by (Chomczynski and Sacchi, Anal Biochem 162: 156-159, 1987). Total RNA was further enriched using RNAeasy minicolumns (Qiagen, Valencia, Calif.). This procedure included digestion of contaminating DNA on the column with RNAse-free DNAse (Qiagen). Total RNA was eluted and quantified by absorbance at 260 nm. One μg of total RNA was used to prepare a cDNA library by reverse transcription (High Capacity cDNA Archive Kit, Applied Biosystems). Libraries were diluted 25-fold with water. Real time PCR was performed Taqman 2×PCR buffer (Applied Biosystems) using an Applied Biosystems 7500 thermocycler. Levels of gene expression in the denervated muscle were expressed as fold induction relative to muscle from the sham-denervated leg of animals administered vehicle. […] Fold-induction was determined using the 2^−ΔΔCt method, using expression of 18S RNA as the normalization control. […]

IGF-1 = test: Chronic denervation: IGF-1 mRNA in gastrocnemius (qPCR); format: in vivo, rat
Experimental: as §1, §2

myostatin = test: Chronic denervation: myostatin mRNA in gastrocnemius (qPCR); format: in vivo, rat
Experimental: as §1, §2

[1] = Testosterone levels after replacement in rats; format: in vivo; conditions: rat, testosterone 0.7 mg/day continuous infusion
Experimental: as §3

[2] = test system: starved, cultured muscle cells; test: Muscle breakdown in starved, cultured muscle cells; format: cell-based

SMILES	junB expression (junB; denervated muscle, 3 to 28 days after starting infusion)	junB expression (junB; sham-denervated muscle)	IGF-1R expression (IGF-1 receptor (IGF-1R); denervated soleus or EDL)	IGF-1R expression (IGF-1 receptor (IGF-1R); sham-denervated soleus and EDL, changes not significant)	IGF-receptor expression (IGF-1 receptor; after 28 days (p<0.10))	IGF-receptor expression (IGF-1 receptor; early time points)	IGF-1 receptor expression (IGF-1 receptor; sham-denervated muscle)	IGF-1 expression (IGF-1; denervated muscle)	IGF-1 expression (IGF-1; sham-denervated muscle)	myostatin expression (myostatin; denervated muscle, 7 and 28 days administration)	myostatin expression (myostatin; sham-denervated muscle, not significant)	testosterone levels after replacement [1]	muscle breakdown [2]
C[C@]12CC[C@H]3[C@@H](CCC4=CC(=O)CC[C@@H]43)[C@@H]1CC[C@@H]2O [nandrolone]	tended to reduce	no effect	No appreciable effects	tended to increase	trend toward increased expression	did not alter	not altered	did not alter	did not alter	modest, though significant reduction	tended to be decreased	–	–
C[C@]12CC[C@H]3[C@@H](CCC4=CC(=O)CC[C@@]43C)[C@@H]1CC[C@@H]2O [testosterone]	–	–	–	–	–	–	–	–	–	–	–	approximately 15 nM	reduced
